Key:
Carboplatin = compound: C1CC(C1)(C(=O)[O-])C(=O)[O-].N.N.[Pt+2] [Carboplatin]; conditions: max 10 µM
Procedure, shortened: (§1)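 In 1536-well plates, cancer cell lines in 7.5 μl DMEM/F12 or RPMI with 10% FBS spent 24 hours at 37°C and 5% CO2 and were then dosed for 72 hours with final DMSO typically 0.2%. Viability was read by CellTiter-Glo 2.0 luminescence and scaled between blank-well and DMSO-well means. The single-agent IC50 was fitted from dose responses using a logistic curve in a non-linear mixed effects model, and that logistic curve had two parameters.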

AZD5363 = compound: C1CN(CCC1(C(=O)N[C@@H](CCO)C2=CC=C(C=C2)Cl)N)C3=NC=NC4=C3C=CN4 [AZD5363]; conditions: max 10 µM
Procedure, shortened: as §1

AZD1775 = compound: C=CCn1c(=O)c2cnc(Nc3ccc(N4CCN(C)CC4)cc3)nc2n1-c1cccc(C(C)(C)O)n1 [AZD1775]; conditions: max 3 µM
Procedure, shortened: as §1

Trametinib = compound: CC(=O)Nc1cccc(-n2c(=O)n(C3CC3)c(=O)c3c(Nc4ccc(I)cc4F)n(C)c(=O)c(C)c32)c1 [Trametinib]; conditions: max 1 µM
Procedure, shortened: as §1

Paclitaxel = compound: CC(=O)O[C@H]1C(=O)[C@@]2(C)[C@H]([C@H](OC(=O)c3ccccc3)[C@]3(O)C[C@H](OC(=O)[C@H](O)[C@@H](NC(=O)c4ccccc4)c4ccccc4)C(C)=C1C3(C)C)[C@]1(OC(C)=O)CO[C@@H]1C[C@@H]2O [Paclitaxel]; conditions: max 3 µM
Procedure, shortened: as §1

Palbociclib = compound: CC(=O)c1c(C)c2cnc(Nc3ccc(N4CCNCC4)cn3)nc2n(C2CCCC2)c1=O [Palbociclib]; conditions: max 10 µM
Procedure, shortened: as §1

AZD1390 = compound: CC(C)n1c(=O)n(C)c2cnc3cc(F)c(-c4ccc(OCCCN5CCCCC5)nc4)cc3c21 [AZD1390]; conditions: max 0.3 µM
Procedure, shortened: as §1

Venetoclax = compound: CC1(C)CCC(CN2CCN(c3ccc(C(=O)NS(=O)(=O)c4ccc(NCC5CCOCC5)c([N+](=O)[O-])c4)c(Oc4cnc5[nH]ccc5c4)c3)CC2)=C(c2ccc(Cl)cc2)C1 [Venetoclax]; conditions: max 1 µM
Procedure, shortened: as §1

Dasatinib = compound: CC1=C(C(=CC=C1)Cl)NC(=O)C2=CN=C(S2)NC3=CC(=NC(=N3)C)N4CCN(CC4)CCO [Dasatinib]; conditions: max 2 µM
Procedure, shortened: as §1

SG3199 = compound: CC1=CN2[C@@H](C1)C=NC3=CC(=C(C=C3C2=O)OC)OCCCCCOC4=C(C=C5C(=C4)N=C[C@@H]6CC(=CN6C5=O)C)OC [SG3199]; conditions: max 0.001 µM
Procedure, shortened: as §1

AZD2811 = compound: CCN(CCO)CCCOc1ccc2c(Nc3cc(CC(=O)Nc4cccc(F)c4)[nH]n3)ncnc2c1 [AZD2811]; conditions: max 1 µM
Procedure, shortened: as §1

SN-38 = compound: CCc1c2c(nc3ccc(O)cc13)-c1cc3c(c(=O)n1C2)COC(=O)[C@]3(O)CC [SN-38]; conditions: max 0.3 µM
Procedure, shortened: as §1

AZD0156 = compound: CN(C)CCCOc1ccc(-c2ccc3ncc4c(c3c2)n(C2CCOCC2)c(=O)n4C)cn1 [AZD0156]; conditions: max 3 µM
Procedure, shortened: as §1

AZD4320 = compound: CN(CC[C@H](CSC1=CC=CC=C1)NC2=C(C=C(C=C2)S(=O)(=O)NC(=O)C3=CC=C(C=C3)N4CCC(CC4)[C@H](C5=CC=CC=C5C6=CC=C(C=C6)Cl)O)S(=O)(=O)C(F)(F)F)CCO [AZD4320]; conditions: max 1 µM
Procedure, shortened: as §1

Alisertib = compound: COc1cc(Nc2ncc3c(n2)-c2ccc(Cl)cc2C(c2c(F)cccc2OC)=NC3)ccc1C(=O)O [Alisertib]; conditions: max 10 µM
Procedure, shortened: as §1

Etoposide = compound: COc1cc([C@@H]2c3cc4c(cc3[C@@H](O[C@@H]3O[C@@H]5CO[C@@H](C)O[C@H]5[C@H](O)[C@H]3O)[C@H]3COC(=O)[C@H]23)OCO4)cc(OC)c1O [Etoposide]; conditions: max 10 µM
Procedure, shortened: as §1

Gefitinib = compound: COc1cc2ncnc(Nc3ccc(F)c(Cl)c3)c2cc1OCCCN1CCOCC1 [Gefitinib]; conditions: max 10 µM
Procedure, shortened: as §1

Prexasertib = compound: COc1cccc(OCCCN)c1-c1cc(Nc2cnc(C#N)cn2)n[nH]1 [Prexasertib]; conditions: max 1 µM
Procedure, shortened: as §1

Doxorubicin = compound: COc1cccc2c1C(=O)c1c(O)c3c(c(O)c1C2=O)C[C@@](O)(C(=O)CO)C[C@@H]3O[C@H]1C[C@H](N)[C@H](O)[C@H](C)O1 [Doxorubicin]; conditions: max 1 µM
Procedure, shortened: as §1

AZD5153 = compound: COc1nnc2ccc(N3CCC(c4ccc(OCCN5CCN(C)C(=O)[C@H]5C)cc4)CC3)nn12 [AZD5153]; conditions: max 1 µM
Procedure, shortened: as §1

Lapatinib = compound: CS(=O)(=O)CCNCc1ccc(-c2ccc3ncnc(Nc4ccc(OCc5cccc(F)c5)c(Cl)c4)c3c2)o1 [Lapatinib]; conditions: max 10 µM
Procedure, shortened: as §1

AZD8186 = compound: C[C@@H](Nc1cc(F)cc(F)c1)c1cc(C(=O)N(C)C)cc2c(=O)cc(N3CCOCC3)oc12 [AZD8186]; conditions: max 10 µM
Procedure, shortened: as §1

Crizotinib = compound: C[C@@H](Oc1cc(-c2cnn(C3CCNCC3)c2)cnc1N)c1c(Cl)ccc(F)c1Cl [Crizotinib]; conditions: max 10 µM
Procedure, shortened: as §1

Savolitinib = compound: C[C@@H](c1ccc2nccn2c1)n1nnc2ncc(-c3cnn(C)c3)nc21 [Savolitinib]; conditions: max 1 µM
Procedure, shortened: as §1

AZD6738 = compound: C[C@@H]1COCCN1C2=NC(=NC(=C2)C3(CC3)[S@](=N)(=O)C)C4=C5C=CNC5=NC=C4 [AZD6738]; conditions: max 10 µM
Procedure, shortened: as §1

AZD5991 = compound: Cc1c2c(nn1C)CSCc1cc(n(C)n1)CSc1cc(c3ccccc3c1)OCCCc1c(C(=O)O)n(C)c3c-2c(Cl)ccc13 [AZD5991]; conditions: max 1 µM
Procedure, shortened: as §1

AZD7648 = compound: Cc1cc2ncnn2cc1Nc1ncc2c(n1)n(C1CCOCC1)c(=O)n2C [AZD7648]; conditions: max 10 µM
Procedure, shortened: as §1

Taselisib = compound: Cc1nc(-c2cn3c(n2)-c2ccc(-c4cnn(C(C)(C)C(N)=O)c4)cc2OCC3)n(C(C)C)n1 [Taselisib]; conditions: max 10 µM
Procedure, shortened: as §1

Selumetinib = compound: Cn1cnc2c(F)c(Nc3ccc(Br)cc3Cl)c(C(=O)NOCCO)cc21 [Selumetinib]; conditions: max 10 µM
Procedure, shortened: as §1

SRA737 = compound: N#Cc1cnc(Nc2cc(NC[C@H]3CNCCO3)c(C(F)(F)F)cn2)cn1 [SRA737]; conditions: max 10 µM
Procedure, shortened: as §1

MK-2206 = compound: NC1(c2ccc(-c3nc4ccn5c(=O)[nH]nc5c4cc3-c3ccccc3)cc2)CCC1 [MK-2206]; conditions: max 10 µM
Procedure, shortened: as §1

Gemcitabine = compound: Nc1ccn([C@@H]2O[C@H](CO)[C@@H](O)C2(F)F)c(=O)n1 [Gemcitabine]; conditions: max 0.3 µM
Procedure, shortened: as §1

[1] = compound: O=C(Nc1ccc2[nH]nc(-c3ccncc3)c2c1)[C@@H]1CCN(CC(=O)N2CCN(c3ccc(-c4ncccn4)cc3)CC2)C1; conditions: max 5 µM
Procedure, shortened: as §1

Olaparib = compound: O=C(c1cc(Cc2n[nH]c(=O)c3ccccc23)ccc1F)N1CCN(C(=O)C2CC2)CC1 [Olaparib]; conditions: max 10 µM
Procedure, shortened: as §1

5-Fluorouracil = compound: O=c1[nH]cc(F)c(=O)[nH]1 [5-Fluorouracil]; conditions: max 20 µM
Procedure, shortened: as §1

Cell Line | IC50, cell viability 72 h (Carboplatin) | IC50, cell viability 72 h (AZD5363) | IC50, cell viability 72 h (AZD1775) | IC50, cell viability 72 h (Trametinib) | IC50, cell viability 72 h (Paclitaxel) | IC50, cell viability 72 h (Palbociclib) | IC50, cell viability 72 h (AZD1390) | IC50, cell viability 72 h (Venetoclax) | IC50, cell viability 72 h (Dasatinib) | IC50, cell viability 72 h (SG3199) | IC50, cell viability 72 h (AZD2811) | IC50, cell viability 72 h (SN-38) | IC50, cell viability 72 h (AZD0156) | IC50, cell viability 72 h (AZD4320) | IC50, cell viability 72 h (Alisertib) | IC50, cell viability 72 h (Etoposide) | IC50, cell viability 72 h (Gefitinib) | IC50, cell viability 72 h (Prexasertib) | IC50, cell viability 72 h (Doxorubicin) | IC50, cell viability 72 h (AZD5153) | IC50, cell viability 72 h (Lapatinib) | IC50, cell viability 72 h (AZD8186) | IC50, cell viability 72 h (Crizotinib) | IC50, cell viability 72 h (Savolitinib) | IC50, cell viability 72 h (AZD6738) | IC50, cell viability 72 h (AZD5991) | IC50, cell viability 72 h (AZD7648) | IC50, cell viability 72 h (Taselisib) | IC50, cell viability 72 h (Selumetinib) | IC50, cell viability 72 h (SRA737) | IC50, cell viability 72 h (MK-2206) | IC50, cell viability 72 h (Gemcitabine) | IC50, cell viability 72 h [1] | IC50, cell viability 72 h (Olaparib) | IC50, cell viability 72 h (5-Fluorouracil)
LCLC-103H (Non-Small Cell Lung Carcinoma) | > 10000 nM | > 10000 nM | 2190 nM | > 1000 nM | 17.8 nM | > 10000 nM | > 300 nM | > 1000 nM | > 2000 nM | > 1 nM | > 1000 nM | > 300 nM | > 3000 nM | > 1000 nM | > 10000 nM | > 10000 nM | > 10000 nM | 88.1 nM | > 1000 nM | > 1000 nM | > 10000 nM | > 10000 nM | > 10000 nM | > 1000 nM | > 10000 nM | > 1000 nM | > 10000 nM | > 10000 nM | > 10000 nM | > 10000 nM | > 10000 nM | > 300 nM | > 5000 nM | > 10000 nM | > 20000 nM
LS-1034 (Colorectal Carcinoma) | > 10000 nM | > 10000 nM | 918 nM | 52 nM | 590 nM | > 10000 nM | > 300 nM | > 1000 nM | > 2000 nM | > 1 nM | > 1000 nM | > 300 nM | > 3000 nM | > 1000 nM | > 10000 nM | > 10000 nM | > 10000 nM | 238 nM | > 1000 nM | 850 nM | > 10000 nM | > 10000 nM | > 10000 nM | > 1000 nM | 6050 nM | > 1000 nM | > 10000 nM | > 10000 nM | 2420 nM | > 10000 nM | > 10000 nM | 120 nM | > 5000 nM | > 10000 nM | > 20000 nM

— the supplement of paper PMC11061612
